Assay results from ChEMBL document CHEMBL4311969, “Polygala tenuifolia-Acori tatarinowii herbal pair as an inspiration for substituted cinnamic α-asaronol esters: Design, synthesis, anticonvulsant activity, and inhibition of lactate dehydrogenase study” (Eur J Med Chem, 2019).
Where “and” joins values, the source holds several entries; their conditions need not be identical. Equal values may be shown once. Calls of active or inactive are those of the source. The calls are words filed in the database; no cut-off is given here.

Key:
[1] = tested on: Mus musculus; test: Anticonvulsant activity in Kunming mouse assessed as MES-induced hind limb extension at 100 mg/kg, ip administered 4 hrs before MES stimulation; type: functional, organism-based
[2] = tested on: Mus musculus; test: Anticonvulsant activity in Kunming mouse assessed as reduction in Sc3-MP-induced clonic seizure rate at 300 mg/kg, ip administered 0.5 hrs before Sc3-MP stimulation relative to control; type: functional; design: scale not given: the % may be the effect or the level left
[3] = tested on: Mus musculus; test: Anticonvulsant activity in Kunming mouse assessed as reduction in Sc3-MP-induced tonic seizure rate at 300 mg/kg, ip administered 0.5 hrs before Sc3-MP stimulation relative to control; type: functional; design: scale not given: the % may be the effect or the level left
[4] = tested on: Mus musculus; test: Anticonvulsant activity in Kunming mouse assessed as MES-induced hind limb extension at 100 mg/kg, ip administered 0. 5 to 2 hrs before MES stimulation; type: functional, organism-based
[5] = Neurotoxicity against Kunming mouse assessed as time remained in rod at 100 mg/kg, ip administered 0.5 to 2 hrs by rotarod test; type: toxicity, organism-based; settings: in vivo
[6] = tested on: Mus musculus; test: Anticonvulsant activity in Kunming mouse assessed as MES-induced hind limb extension at 50 mg/kg, ip administered 0.5 to 4 hrs before MES stimulation relative to control; type: functional
[7] = tested on: Mus musculus; test: Anticonvulsant activity in Kunming mouse assessed as MES-induced hind limb extension at 50 mg/kg, ip administered 0.5 and 2 hrs before MES stimulation relative to control; type: functional
[8] = tested on: Mus musculus; test: Anticonvulsant activity in Kunming mouse assessed as reduction in ScPTZ-induced seizure at 300 mg/kg, ip administered 0.25 to 2 hrs before ScPTZ stimulation relative to control; type: functional; design: scale not given: the % may be the effect or the level left
[9] = tested on: Mus musculus; test: Anticonvulsant activity in Kunming mouse assessed as reduction in ScPTZ-induced seizure at 100 mg/kg, ip administered 0.25 to 2 hrs before ScPTZ stimulation relative to control; type: functional
[10] = tested on: Mus musculus; test: Anticonvulsant activity in Kunming mouse assessed as reduction in ScPTZ-induced clonic seizure at 300 mg/kg, ip administered 0.5 hrs before ScPTZ stimulation relative to control; type: functional; design: scale not given: the % may be the effect or the level left
[11] = tested on: Mus musculus; test: Anticonvulsant activity in Kunming mouse assessed as reduction in ScPTZ-induced clonic seizure at 100 mg/kg, ip administered 0.5 hrs before ScPTZ stimulation relative to control; type: functional; design: scale not given: the % may be the effect or the level left
[12] = tested on: Mus musculus; test: Anticonvulsant activity in Kunming mouse assessed as reduction in ScPTZ-induced tonic seizure rate at 300 mg/kg, ip administered 0.5 hrs before ScPTZ stimulation relative to control; type: functional; design: scale not given: the % may be the effect or the level left
[13] = tested on: Mus musculus; test: Anticonvulsant activity in Kunming mouse assessed as reduction in ScPTZ-induced tonic seizure rate at 100 mg/kg, ip administered 0.5 hrs before ScPTZ stimulation relative to control; type: functional; design: scale not given: the % may be the effect or the level left
[14] = tested on: Mus musculus; test: Anticonvulsant activity in Kunming mouse assessed as reduction in ScPTZ-induced mortality rate at 300 mg/kg, ip administered 0.5 hrs before ScPTZ stimulation relative to control; type: functional; design: scale not given: the % may be the effect or the level left
[15] = tested on: Mus musculus; test: Anticonvulsant activity in ip dosed Kunming mouse assessed as MES-induced hind limb extension administered 0.5 hrs before MES stimulation; type: functional
[16] = tested on: Mus musculus; test: Anticonvulsant activity in ip dosed Kunming mouse assessed as reduction in ScPTZ-induced seizure administered 0.5 hrs before ScPTZ stimulation; type: functional
[17] = tested on: Mus musculus; test: Anticonvulsant activity in Kunming mouse assessed as reduction in Sc3-MP-induced seizure ip dosed measured at 0.5 hrs before Sc3-MP stimulation; type: functional
[18] = tested on: Mus musculus; test: […] activity in ip dosed Kunming mouse assessed as reduction in formalin-induced paw licking administered 0.5 hrs before formalin stimulation; type: functional
[19] = Neurotoxicity against ip dosed Kunming mouse assessed as time remained in rod measured at 0.5 hrs by rotarod test; type: toxicity, organism-based; settings: in vivo
[20] = Protective index, ratio of TD50 for neurotoxicity against ip dosed Kunming mouse assessed as time remained in rod measured at 0.5 hrs by rotarod test to ED50 for anticonvulsant activity in ip dosed Kunming mouse assessed as MES-induced hind limb extension administered 0.5 hrs; type: toxicity, organism-based; settings: in vivo, read-out: PI
[21] = (§1) Protective index, ratio of TD50 for neurotoxicity against ip dosed Kunming mouse assessed as time remained in rod measured at 0.5 hrs by rotarod test to ED50 for anticonvulsant activity in ip dosed Kunming mouse assessed as reduction in ScPTZ-induced seizure administered 0.5 hrs before ScPTZ stimulation; type: toxicity, organism-based; settings: in vivo, read-out: PI
[22] = as §1, with “Sc3-MP-induced” for “ScPTZ-induced”, “Sc3-MP” for “ScPTZ”; type: toxicity, organism-based; settings: in vivo, read-out: PI
[23] = as §1, with “formalin-induced paw licking” for “ScPTZ-induced seizure”, “formalin” for “ScPTZ”; type: toxicity, organism-based; settings: in vivo, read-out: PI
[24] = species on record: Homo sapiens; test: Inhibition of human LDH1 at 0.5 mM using sodium pyruvate as substrate by UV-VIS spectrophotometry method relative to control
[25] = species on record: Homo sapiens; test: Inhibition of human LDH5 at 0.5 mM using sodium pyruvate as substrate by UV-VIS spectrophotometry method relative to control
[26] = species on record: Homo sapiens; test: Inhibition of human LDH1 at 0.5 mM using sodium pyruvate as substrate measured for 60 sec for every 5 mins by LC/MS-MS analysis
[27] = species on record: Homo sapiens; test: Inhibition of human LDH5 at 0.5 mM using sodium pyruvate as substrate measured for 60 sec for every 5 mins by LC/MS-MS analysis
[28] = tested on: Mus musculus; test: Anticonvulsant activity in Kunming mouse assessed as MES-induced hind limb extension at 100 mg/kg, ip administered 0. 5 hrs before MES stimulation relative to control; type: functional
[29] = tested on: Mus musculus; test: Anticonvulsant activity in Kunming mouse assessed as MES-induced hind limb extension at 100 mg/kg, ip administered 0. 5 to 4 hrs before MES stimulation relative to control; type: functional
[30] = species on record: Homo sapiens; test: Inhibition of human LDH1 assessed as remaining activity at 0.5 mM using sodium pyruvate as substrate by UV-VIS spectrophotometry method relative to control
[31] = species on record: Homo sapiens; test: Inhibition of human LDH5 assessed as remaining activity at 0.5 mM using sodium pyruvate as substrate by UV-VIS spectrophotometry method relative to control
[32] = tested on: Mus musculus; test: Anticonvulsant activity in Kunming mouse assessed as MES-induced hind limb extension at 100 mg/kg, ip administered 3 hrs before MES stimulation; type: functional, organism-based
[33] = tested on: Mus musculus; test: Anticonvulsant activity in Kunming mouse assessed as reduction in ScPTZ-induced seizure at 100 mg/kg, ip administered 0.25 and 1 hrs before ScPTZ stimulation relative to control; type: functional; design: scale not given: the % may be the effect or the level left
[34] = tested on: Mus musculus; test: Anticonvulsant activity in Kunming mouse assessed as reduction in Sc3-MP-induced seizure at 300 mg/kg, ip administered 0.25 and 1 hrs before Sc3-MP stimulation relative to control; type: functional, organism-based
[35] = tested on: Mus musculus; test: Anticonvulsant activity in Kunming mouse assessed as reduction in Sc3-MP-induced seizure at 300 mg/kg, ip administered 0.5 hrs before Sc3-MP stimulation relative to control; type: functional; design: scale not given: the % may be the effect or the level left
[36] = Noncompetitive inhibition of human LDH1 at 0.5 mM using sodium pyruvate as substrate by UV-VIS spectrophotometry method based Lineweaver-Burk plot analysis
[37] = Noncompetitive inhibition of human LDH5 at 0.5 mM using sodium pyruvate as substrate by UV-VIS spectrophotometry method based Lineweaver-Burk plot analysis
[38] = tested on: Mus musculus; test: Anticonvulsant activity in Kunming mouse assessed as reduction in ScPTZ-induced seizure at 100 mg/kg, ip administered 0.5 hrs before ScPTZ stimulation relative to control; type: functional; design: scale not given: the % may be the effect or the level left
[39] = tested on: Mus musculus; test: Anticonvulsant activity in Kunming mouse assessed as reduction in ScPTZ-induced seizure at 100 mg/kg, ip administered 1 hr relative to control; type: functional; design: scale not given: the % may be the effect or the level left
[40] = tested on: Mus musculus; test: Anticonvulsant activity in Kunming mouse assessed as reduction in Sc3-MP-induced mortality rate at 300 mg/kg, ip administered 0.5 hrs before Sc3-MP stimulation relative to control; type: functional; design: scale not given: the % may be the effect or the level left

Row | Compound | Activity [2] | Activity [3] | Activity [4] | Activity [5] | Activity [6] | Activity [7] | Activity [8] | Activity [9] | Activity [10] | Activity [11] | Activity [12] | Activity [13] | ED50 [15] | ED50 [16] | ED50 [17] | ED50 [18] | TD50 at 0.5 h [19] | selectivity ratio at 0.5 h [20] | selectivity ratio at 0.5 h [21] | selectivity ratio at 0.5 h [22] | also measured
1 | COc1ccccc1/C=C/C(=O)OC/C=C/c1cc(OC)c(OC)cc1OC | 100% | 100% | Active | Non-Toxic | 50% | 75% | 50% | inactive | 100% | 100% | 50% | 100% | 39 mg/kg and 101 µmol/kg | 240 mg/kg and 625 µmol/kg | > 300 mg/kg and 780 µmol/kg | 113 mg/kg and 294 µmol/kg | > 1000 mg/kg and 2600 µmol/kg | > 25.6 | > 4.2 | 3.3 | Activity [1]: Active; Activity [14]: 25%; selectivity ratio at 0.5 h [23]: > 8.9; inhibition [24]: inactive; inhibition [25]: inactive; inhibition [26]: 2%; inhibition [27]: 2%; Activity [28]: 100%; Activity [29]: 25 - 100%
2 | CCCC(CCC)C(=O)O |  |  |  |  |  |  |  |  |  |  |  |  |  |  |  |  |  |  |  |  | Activity [30]: 100%; Activity [31]: 100%
3 | COc1cc(OC)c(OC)cc1/C=C/COC(=O)/C=C/c1cc(OC)c(OC)c(OC)c1 | 100% | 75% | Active | Non-Toxic | 50% | 75% | 50% | inactive | 100% | 100% | 25% | 100% | 74.7 µmol/kg and 33.2 mg/kg | 204 mg/kg and 458 µmol/kg | > 200 mg/kg and > 450 µmol/kg | 85.5 mg/kg and 192 µmol/kg | 2220 µmol/kg and 988 mg/kg | 29.8 | 4.9 | 3.3 | Activity [32]: Active; Activity [33]: 75%; Activity [34]: Active; Activity [35]: 50%; selectivity ratio at 0.5 h [23]: 11.6; inhibition [24]: 10%; inhibition [25]: 13%; inhibition [26]: 10%; inhibition [27]: 13%; Ki [36]: 14.1 µM; Ki [37]: 3.35 µM; Activity [28]: 100%; Activity [29]: 25 - 100%
4 | COc1cc(OC)c(OC)cc1/C=C/COC(=O)/C=C/c1ccc(OC)c(OC)c1 | 100% | 75% | Active | Non-Toxic | 50% | 50% | 50% | inactive | 100% | 100% | 0% | 100% | 58.1 mg/kg and 140 µmol/kg | 173 mg/kg and 418 µmol/kg | > 300 mg/kg and > 724 µmol/kg | 93.3 mg/kg and 225 µmol/kg | > 1000 mg/kg and > 2410 µmol/kg | > 17.2 | > 5.8 | 3.3 | Activity [38]: 100%; Activity [39]: 75%; Activity [40]: 25%; selectivity ratio at 0.5 h [23]: > 10.7; inhibition [24]: Active; inhibition [25]: Active; Activity [29]: 25 - 100%
